Drawing on PubChem BioAssay (NCI), this text covers TGI for 16 molecules.

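48-hour exposure; five concentrations; linearly interpolated endpoints. TGI denotes the concentration required for complete inhibition of growth.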

One assay deals with NCI-H226 lung. Put plainly: growth of human tumour cells (NCI), 48 h.
`[N-]=[N+]=Nc1cc(=O)[nH]nc1-c1ccccc1` returned a TGI greater than 100 µM.
Same read-out and setting: under `[N-]=[N+]=NC1C(O)C(CO)OC1n1ccc(=O)[nH]c1=O` (stereo not given) stands greater than 875 µM.

In a further assay the test system is NCI-H23 lung. Briefly: growth of human tumour cells (NCI), 48 h.
`Fc1ccc(C(=C2CCN(CCc3ccc4[nH]c(=S)[nH]c4c3)CC2)c2ccc(F)cc2)cc1` came in with a TGI of 13.1 µM.
Same read-out and setting: under `C#CC(C)(C)OC(=O)C(=[N+]=[N-])C(C)=O` stands greater than 10 µM.
Molecule `CC(C)N(C(=O)C1(O)c2ccccc2C=Cc2ccccc21)C(C)C` returned a TGI of 34.2 µM.
Turning to `CCOC(=O)C1(C/C=C/CBr)CCc2ccccc2C1=O` (stereo not given), the TGI was determined as 39.8 µM.
Still for that read-out and setting: under `COc1cc(C(C)=O)cc(C(=O)N(C(C)C)C(C)C)c1[Si](C)(C)C` stands greater than 100 µM; under `CCCCCC(=O)CCCCCCCC(O)CC(=O)OCC` (stereo not given), greater than 100 µM.
Still for that read-out and setting: under `CN1CCc2c(sc3ncn(C)c(=N)c23)C1` stands greater than 100 µM.
Consider `N#CC1=C(Nc2ccccc2)SC=C(c2ccccc2)NC1=NCc1ccccc1`, for which the TGI was greater than 100 µM.
Still for that read-out and setting: as for `COC(=O)c1c(C#N)[nH]c(-c2ccsc2)c1C(=O)OC`, the figure is greater than 100 µM; as for `Cc1cc(C)c2c(c1)C/C(=C\c1ccccc1C(=O)O)C2=O`, greater than 100 µM; as for `CCC(=O)O[C@H]1CC[C@H]2[C@@H]3CCC4=C/C(=N/OC(=O)c5cccc6c(=O)c7ccccc7[nH]c56)CC[C@]4(C)[C@H]3CC[C@]12C`, greater than 100 µM.
`[N-]=[N+]=Nc1cc(=O)[nH]nc1-c1ccccc1` came in with a TGI greater than 100 µM.
Same read-out and setting: under `COc1ccc(NC(=O)N(C)CC2(O)CCC(C(C)(C)C)CC2)cc1` (stereo not given) stands greater than 100 µM; under `[N-]=[N+]=NC1C(O)C(CO)OC1n1ccc(=O)[nH]c1=O` (stereo not given), greater than 875 µM.
Molecule `CN(C)CCNC(=O)c1ccc2nc3c(nc2c1)C(=O)c1ccccc1-3` came in with a TGI greater than 100 µM.

For another assay, the system named is SF-268 CNS. Briefly: growth of human tumour cells (NCI), 48 h.
On to `Fc1ccc(C(=C2CCN(CCc3ccc4[nH]c(=S)[nH]c4c3)CC2)c2ccc(F)cc2)cc1`, for which the TGI is 25.9 µM.
The same measure, in the same setting: under `C#CC(C)(C)OC(=O)C(=[N+]=[N-])C(C)=O` stands greater than 10 µM; under `CC(C)N(C(=O)C1(O)c2ccccc2C=Cc2ccccc21)C(C)C`, 36 µM; under `CCOC(=O)C1(C/C=C/CBr)CCc2ccccc2C1=O` (stereo not given), 46 µM.
On the same count and under the same terms, under `COc1cc(C(C)=O)cc(C(=O)N(C(C)C)C(C)C)c1[Si](C)(C)C` stands greater than 100 µM.
As for `CCCCCC(=O)CCCCCCCC(O)CC(=O)OCC` (stereo not given), the TGI is greater than 100 µM.
The same measure, in the same setting: as for `CN1CCc2c(sc3ncn(C)c(=N)c23)C1`, the figure is greater than 100 µM; as for `O=S1(=O)Cc2ccc3c4c2-c2c(ccc5ccc(c-4c25)CS(=O)(=O)C3)C1`, greater than 100 µM; as for `N#CC1=C(Nc2ccccc2)SC=C(c2ccccc2)NC1=NCc1ccccc1`, greater than 100 µM.
Same read-out and setting: as for `COC(=O)c1c(C#N)[nH]c(-c2ccsc2)c1C(=O)OC`, the figure is greater than 100 µM.
Still for that read-out and setting: as for `Cc1cc(C)c2c(c1)C/C(=C\c1ccccc1C(=O)O)C2=O`, the figure is greater than 100 µM; as for `CCC(=O)O[C@H]1CC[C@H]2[C@@H]3CCC4=C/C(=N/OC(=O)c5cccc6c(=O)c7ccccc7[nH]c56)CC[C@]4(C)[C@H]3CC[C@]12C`, greater than 100 µM.
In turn, `[N-]=[N+]=Nc1cc(=O)[nH]nc1-c1ccccc1` came in with a TGI greater than 100 µM.
On the same count and under the same terms, under `COc1ccc(NC(=O)N(C)CC2(O)CCC(C(C)(C)C)CC2)cc1` (stereo not given) stands greater than 100 µM; under `[N-]=[N+]=NC1C(O)C(CO)OC1n1ccc(=O)[nH]c1=O` (stereo not given), greater than 875 µM.
On the same count and under the same terms, under `CN(C)CCNC(=O)c1ccc2nc3c(nc2c1)C(=O)c1ccccc1-3` stands greater than 100 µM.

The test system of another assay is KM12 colon. Briefly: growth of human tumour cells (NCI), 48 h.
`Fc1ccc(C(=C2CCN(CCc3ccc4[nH]c(=S)[nH]c4c3)CC2)c2ccc(F)cc2)cc1` had a TGI of 19.1 µM.
`C#CC(C)(C)OC(=O)C(=[N+]=[N-])C(C)=O` yielded a TGI greater than 10 µM.
As for `CC(C)N(C(=O)C1(O)c2ccccc2C=Cc2ccccc21)C(C)C`, the TGI amounted to 49.7 µM.
Still for that read-out and setting: as for `CCOC(=O)C1(C/C=C/CBr)CCc2ccccc2C1=O` (stereo not given), the figure is 30.7 µM; as for `COc1cc(C(C)=O)cc(C(=O)N(C(C)C)C(C)C)c1[Si](C)(C)C`, greater than 100 µM; as for `CCCCCC(=O)CCCCCCCC(O)CC(=O)OCC` (stereo not given), greater than 100 µM.
As for `CN1CCc2c(sc3ncn(C)c(=N)c23)C1`, the TGI is greater than 100 µM.
`O=S1(=O)Cc2ccc3c4c2-c2c(ccc5ccc(c-4c25)CS(=O)(=O)C3)C1`: the TGI is greater than 100 µM.
Still for that read-out and setting: as for `N#CC1=C(Nc2ccccc2)SC=C(c2ccccc2)NC1=NCc1ccccc1`, the figure is greater than 100 µM; as for `COC(=O)c1c(C#N)[nH]c(-c2ccsc2)c1C(=O)OC`, greater than 100 µM.
On to `Cc1cc(C)c2c(c1)C/C(=C\c1ccccc1C(=O)O)C2=O`, for which the TGI is greater than 100 µM.
For the molecule `CCC(=O)O[C@H]1CC[C@H]2[C@@H]3CCC4=C/C(=N/OC(=O)c5cccc6c(=O)c7ccccc7[nH]c56)CC[C@]4(C)[C@H]3CC[C@]12C`, the TGI was 55.1 µM.
Molecule `[N-]=[N+]=Nc1cc(=O)[nH]nc1-c1ccccc1` came in with a TGI greater than 100 µM.
In the case of `COc1ccc(NC(=O)N(C)CC2(O)CCC(C(C)(C)C)CC2)cc1` (stereo not given), the TGI was greater than 100 µM.
In turn, `[N-]=[N+]=NC1C(O)C(CO)OC1n1ccc(=O)[nH]c1=O` (stereo not given) displayed a TGI greater than 875 µM.
The molecule `CN(C)CCNC(=O)c1ccc2nc3c(nc2c1)C(=O)c1ccccc1-3` came in with a TGI greater than 100 µM.

Another assay has as its system SW-620 colon. Briefly: growth of human tumour cells (NCI), 48 h.
Molecule `Fc1ccc(C(=C2CCN(CCc3ccc4[nH]c(=S)[nH]c4c3)CC2)c2ccc(F)cc2)cc1` gave a TGI greater than 100 µM.
The same measure, in the same setting: as for `C#CC(C)(C)OC(=O)C(=[N+]=[N-])C(C)=O`, the figure is greater than 10 µM.
In turn, `CC(C)N(C(=O)C1(O)c2ccccc2C=Cc2ccccc21)C(C)C` came in with a TGI of 31.3 µM.
`CCOC(=O)C1(C/C=C/CBr)CCc2ccccc2C1=O` (stereo not given) displayed a TGI of 30.3 µM.
Turning to `COc1cc(C(C)=O)cc(C(=O)N(C(C)C)C(C)C)c1[Si](C)(C)C`, the TGI is greater than 100 µM.
In turn, `CCCCCC(=O)CCCCCCCC(O)CC(=O)OCC` (stereo not given) had a TGI greater than 100 µM.
Still for that read-out and setting: as for `CN1CCc2c(sc3ncn(C)c(=N)c23)C1`, the figure is greater than 100 µM.
On the same count and under the same terms, under `O=S1(=O)Cc2ccc3c4c2-c2c(ccc5ccc(c-4c25)CS(=O)(=O)C3)C1` stands greater than 100 µM.
Regarding `N#CC1=C(Nc2ccccc2)SC=C(c2ccccc2)NC1=NCc1ccccc1`, the TGI is greater than 100 µM.
Turning to `COC(=O)c1c(C#N)[nH]c(-c2ccsc2)c1C(=O)OC`, the TGI is greater than 100 µM.
Molecule `Cc1cc(C)c2c(c1)C/C(=C\c1ccccc1C(=O)O)C2=O` came in with a TGI greater than 100 µM.
Still for that read-out and setting: under `CCC(=O)O[C@H]1CC[C@H]2[C@@H]3CCC4=C/C(=N/OC(=O)c5cccc6c(=O)c7ccccc7[nH]c56)CC[C@]4(C)[C@H]3CC[C@]12C` stands greater than 100 µM; under `[N-]=[N+]=Nc1cc(=O)[nH]nc1-c1ccccc1`, greater than 100 µM.
On the same count and under the same terms, under `COc1ccc(NC(=O)N(C)CC2(O)CCC(C(C)(C)C)CC2)cc1` (stereo not given) stands greater than 100 µM; under `[N-]=[N+]=NC1C(O)C(CO)OC1n1ccc(=O)[nH]c1=O` (stereo not given), greater than 875 µM.
Same read-out and setting: as for `CN(C)CCNC(=O)c1ccc2nc3c(nc2c1)C(=O)c1ccccc1-3`, the figure is greater than 100 µM.

For another assay, the system named is CAKI-1 renal. Put plainly: growth of human tumour cells (NCI), 48 h.
For the molecule `Fc1ccc(C(=C2CCN(CCc3ccc4[nH]c(=S)[nH]c4c3)CC2)c2ccc(F)cc2)cc1`, the TGI stood at 28.6 µM.
`CC(C)N(C(=O)C1(O)c2ccccc2C=Cc2ccccc21)C(C)C` showed a TGI of 57.7 µM.
Still for that read-out and setting: under `CCOC(=O)C1(C/C=C/CBr)CCc2ccccc2C1=O` (stereo not given) stands 28.8 µM; under `COc1cc(C(C)=O)cc(C(=O)N(C(C)C)C(C)C)c1[Si](C)(C)C`, greater than 100 µM; under `CCCCCC(=O)CCCCCCCC(O)CC(=O)OCC` (stereo not given), greater than 100 µM.
